This is an account of results in patent US9937214B2, “Lactobacillus crispatus and application thereof” (priority 2013, dated 2018).

The experiment has as its system Lactobacillus crispatus 262-1. Nature of the experiment: Antibiotic sensitivity test, agar-diffusion paper-disc method. On Inhibition zone diameter: test concentration or dose not given here. The class given is cell-based. The conditions noted are these: for Inhibition zone diameter: paper content/sheet per antibiotic as in Table 3; for Sensitivity determination: T0 generation, three levels: sensitivity, mediation, drug resistance, criteria of reference bacteria; for Sensitivity determination (passage stability test): embodiment 6. (In general: Agar diffusion results depend on both activity and mobility in agar.)

Positions of bridges follow the written chain, without caps; N, C: chain ends. Non-standard residues stand in square brackets, D forms with d. Residues, ends and D or L forms follow the SMILES beside them. *: point of attachment. Ileψ(thiazoline)Cys = CC[C@H](C)[C@H](N)C1=N[C@H](C(=O)*)CS1; dOrn = NCCC[C@@H](N)C(=O)O

Take `CC1(C)S[C@@H]2[C@H](NC(=O)[C@H](N)c3ccc(O)cc3)C(=O)N2[C@H]1C(=O)O` [Amoxicillin]: the Sensitivity determination entry is recorded as “Sensitivity” and the “Sensitivity determination (passage stability test)” value is “mediation”. Also, under “T0 generation of the strain”, the Inhibition zone diameter turned out to be 20 mm. Under “listed as amoxicillin”, the Sensitivity determination result is “sensitivity”. The compound also had an Inhibition zone diameter (T30 generation of the strain) of 24 mm. Moreover, the Inhibition zone diameter (T50 generation of the strain) stood at 23 mm.
Consider `CC1(C)S[C@@H]2[C@H](NC(=O)[C@H](N)c3ccccc3)C(=O)N2[C@H]1C(=O)O` [Ampicillin], for which the Sensitivity determination entry is “Sensitivity” and the “Sensitivity determination (passage stability test)” value was “mediation”. The same compound showed an Inhibition zone diameter (T0 generation of the strain) of 24 mm. In addition, the Sensitivity determination entry (listed as ampicillin) is listed as “sensitivity”. For the setting “T30 generation of the strain”, this compound registered an Inhibition zone diameter of 24 mm. Moreover, where the note is “T50 generation of the strain”, the Inhibition zone diameter is on record as 25 mm.
With `CC[C@H]1OC(=O)[C@H](C)[C@@H](O[C@H]2C[C@@](C)(OC)[C@@H](O)[C@H](C)O2)[C@H](C)[C@@H](O[C@@H]2O[C@H](C)C[C@H](N(C)C)[C@H]2O)[C@](C)(O)C[C@@H](C)CN(C)[C@H](C)[C@@H](O)[C@]1(C)O` [Azithromycin], the Sensitivity determination entry is recorded as “Sensitivity”. The Inhibition zone diameter (T0 generation of the strain) stood at 31 mm. Moreover, for the setting “listed as azithromycin”, the Sensitivity determination entry was “sensitivity”. Moreover, the Inhibition zone diameter (T30 generation of the strain) is on record as 31 mm. The same compound displayed an Inhibition zone diameter (T50 generation of the strain) of 30 mm.
Regarding `CC[C@H](C)[C@H](N)C1=N[C@H](C(=O)N[C@@H](CC(C)C)C(=O)N[C@H](CCC(=O)O)C(=O)N[C@H](C(=O)N[C@H]2CCCCNC(=O)[C@H](CC(N)=O)NC(=O)[C@@H](CC(=O)O)NC(=O)[C@H](Cc3cnc[nH]3)NC(=O)[C@@H](Cc3ccccc3)NC(=O)[C@H]([C@@H](C)CC)NC(=O)[C@@H](CCCN)NC2=O)[C@@H](C)CC)CS1` [Bacitracin] ({Ileψ(thiazoline)Cys}-L[dE]IK[dOrn]I[dF]H[dD]N; lactam 4-C), the Sensitivity determination entry is on record as “drug resistance” and the “Sensitivity determination (passage stability test)” value was “drug resistance”. For the same compound, the Inhibition zone diameter (T0 generation of the strain) was determined as 0 mm. Further, the Inhibition zone diameter (T30 generation of the strain) was determined as 0 mm. This compound also gave an Inhibition zone diameter (T50 generation of the strain) of 0 mm.
Regarding `CO/N=C(\C(=O)N[C@@H]1C(=O)N2C(C(=O)O)=C(CSc3nc(=O)c(=O)[nH]n3C)CS[C@H]12)c1csc(N)n1` [Ceftriaxone], the Sensitivity determination entry is reported as “Sensitivity” and the “Sensitivity determination (passage stability test)” value was “mediation”. Under “T0 generation of the strain”, this compound returned an Inhibition zone diameter of 29 mm. Further, the Sensitivity determination entry (listed as ceftriaxone) is recorded as “sensitivity”. Further, the Inhibition zone diameter (T30 generation of the strain) is listed as 31 mm. The Inhibition zone diameter (T50 generation of the strain) came to 30 mm.
For `O=C(N[C@H](CO)[C@H](O)c1ccc([N+](=O)[O-])cc1)C(Cl)Cl` [Chloramphenicol], the Sensitivity determination entry is “Sensitivity”. The Inhibition zone diameter (T0 generation of the strain) is 35 mm. Further, the Sensitivity determination result (listed as chloromycetin) is “sensitivity”. The compound further returned an Inhibition zone diameter (T30 generation of the strain) of 36 mm. For the same compound, the Inhibition zone diameter (T50 generation of the strain) came to 35 mm.
Regarding `CCC[C@@H]1C[C@@H](C(=O)N[C@@H]([C@H]2O[C@H](SC)[C@H](O)[C@@H](O)[C@H]2O)[C@H](C)Cl)N(C)C1` [Clindamycin], the Inhibition zone diameter reads like this: (T0 generation of the strain) 35 mm; (T30 generation of the strain) 37 mm; (T50 generation of the strain) 36 mm.
As for `CC[C@H]1OC(=O)[C@H](C)[C@@H](O[C@H]2C[C@@](C)(OC)[C@@H](O)[C@H](C)O2)[C@H](C)[C@@H](O[C@@H]2O[C@H](C)C[C@H](N(C)C)[C@H]2O)[C@](C)(O)C[C@@H](C)C(=O)[C@H](C)[C@@H](O)[C@]1(C)O` [Erythromycin], the Sensitivity determination result is “Sensitivity”. Further, for the setting “T0 generation of the strain”, the Inhibition zone diameter is on record as 36 mm. Also, the Sensitivity determination result (listed as erythromycin) was “sensitivity”. For the same compound, the Inhibition zone diameter (T30 generation of the strain) stood at 41 mm. The compound further returned an Inhibition zone diameter (T50 generation of the strain) of 39 mm.
In the case of `C[C@@H](O)[C@H]1C(=O)N2C(C(=O)O)=C(SCCN=CN)C[C@H]12` [Imipenem], the Inhibition zone diameter runs as follows: (T0 generation of the strain) 40 mm; (T30 generation of the strain) 40 mm; (T50 generation of the strain) 40 mm.
Consider `NC[C@H]1O[C@H](O[C@H]2[C@H](O)[C@@H](O[C@H]3O[C@H](CO)[C@@H](O)[C@H](N)[C@H]3O)[C@H](N)C[C@@H]2N)[C@H](O)[C@@H](O)[C@@H]1O` [Kanamycin], for which the Inhibition zone diameter is, setting by setting: (T0 generation of the strain) 0 mm; (T30 generation of the strain) 0 mm; (T50 generation of the strain) 0 mm.
With `Cc1ncc([N+](=O)[O-])n1CCO` [Metronidazole], the Sensitivity determination entry is “drug resistance” and the “Sensitivity determination (passage stability test)” value is “drug resistance”. Further, where the note is “T0 generation of the strain”, the Inhibition zone diameter is on record as 0 mm. This compound gave an Inhibition zone diameter (T30 generation of the strain) of 0 mm. Under “T50 generation of the strain”, this compound displayed an Inhibition zone diameter of 0 mm.
On to `CCN1CCN(C(=O)N[C@@H](C(=O)N[C@@H]2C(=O)N3[C@@H]2SC(C)(C)[C@@H]3C(=O)O)c2ccccc2)C(=O)C1=O` [Piperacillin], for which the Sensitivity determination entry is reported as “Sensitivity”. The Inhibition zone diameter (T0 generation of the strain) was found to be 35 mm. For the same compound, the Sensitivity determination entry (listed as piperacillin) was “sensitivity”. The same compound showed an Inhibition zone diameter (T30 generation of the strain) of 37 mm. Under “T50 generation of the strain”, this compound had an Inhibition zone diameter of 35 mm.
Turning to `CN(C)[C@@H]1C(O)=C(C(N)=O)C(=O)[C@@]2(O)C(O)=C3C(=O)c4c(O)cccc4[C@@](C)(O)[C@H]3C[C@@H]12` [Tetracycline], the Inhibition zone diameter by setting is: (T0 generation of the strain) 38 mm; (T30 generation of the strain) 40 mm; (T50 generation of the strain) 39 mm.
Turning to `CN[C@H](CC(C)C)C(=O)N[C@H]1C(=O)N[C@@H](CC(N)=O)C(=O)N[C@H]2C(=O)N[C@H]3C(=O)N[C@H](C(=O)N[C@H](C(=O)O)c4cc(O)cc(O)c4-c4cc3ccc4O)[C@H](O)c3ccc(c(Cl)c3)Oc3cc2cc(c3O[C@@H]2O[C@H](CO)[C@@H](O)[C@H](O)[C@H]2O[C@H]2C[C@](C)(N)[C@H](O)[C@H](C)O2)Oc2ccc(cc2Cl)[C@H]1O` [Vancomycin], the Sensitivity determination entry is reported as “Sensitivity” and the “Sensitivity determination (passage stability test)” value is “mediation”. Where the note is “T0 generation of the strain”, this compound showed an Inhibition zone diameter of 26 mm. Also, the Sensitivity determination entry (listed as vancomycin) is reported as “sensitivity”. The Inhibition zone diameter (T30 generation of the strain) was found to be 27 mm. The Inhibition zone diameter (T50 generation of the strain) is 26 mm.
As for `Cc1onc(-c2ccccc2)c1C(=O)N[C@@H]1C(=O)N2[C@@H]1SC(C)(C)[C@@H]2C(=O)O` [oxacillin], the Sensitivity determination entry is reported as “Mediation” and the “Sensitivity determination (passage stability test)” value is “mediation”. Further, the Inhibition zone diameter (T0 generation of the strain) stood at 9 mm. For the same compound, the Inhibition zone diameter (T30 generation of the strain) was determined as 10 mm. Besides, the Inhibition zone diameter (T50 generation of the strain) is given as 9 mm.
Gentamicin: the Sensitivity determination entry is recorded as “drug resistance” and the “Sensitivity determination (passage stability test)” value is recorded as “drug resistance”. Moreover, the Inhibition zone diameter (T0 generation of the strain) was found to be 0 mm. Under “T30 generation of the strain”, this compound had an Inhibition zone diameter of 0 mm. This compound yielded an Inhibition zone diameter (T50 generation of the strain) of 0 mm.
For the compound Penicillin, the Sensitivity determination result was “Mediation” and the “Sensitivity determination (passage stability test)” value is on record as “mediation”. The compound further returned an Inhibition zone diameter (T0 generation of the strain) of 24 mm. Moreover, the Sensitivity determination entry (listed as penicillin) was “mediation”. For the setting “T30 generation of the strain”, this compound came in with an Inhibition zone diameter of 25 mm. The Inhibition zone diameter (T50 generation of the strain) was found to be 24 mm.
